From US20090263410A1, “USE OF TGF-B1 INHIBITOR PEPTIDES IN THE PREPARATION OF AN IMMUNE RESPONSE MODULATING AGENT” (Proyecto De Biomedicina Cima, S.L., priority 2005, published 2009)

Tested on: dendritic cells derived from splenocytes
Experiment: Surface markers of splenocyte-derived dendritic cells by flow cytometry
Type: cell-based, C57 mouse
Conditions: incubation 72 hours; p144 50 μg/ml or anti (TGF-β) antibody 20 μg/ml; medium with GM-CSF+TGF-β1
Description: After sacrificing an 8-week old male C57 mouse, its spleen was extracted in sterile conditions and it was homogenised on a plate with clean medium to produce a cell suspension. The cells were centrifuged for 5 minutes at 1000 rpm and the cell sediment obtained was resuspended with 1 ml/spleen of ACK lysis solution (0.15M NH4Cl, 1 mM KHCO3, […] sodium salt-EDTA solution, pH 7.2-7.4) for 1 minute at 37° C. Next, the cells were centrifuged and washed with 10 ml of cold R10 medium (RPMI-1640, 10% FBS, Glutamine, 2×10^−5 M 2-Mercaptoethanol) to centrifuge and wash once more. Finally, the cells were resuspended in 50 ml of R10 medium. 6-well plates were prepared (Costar #3471) treating them with 1 ml per well of R10 medium to differentiate splenocytes from dendritic cells [R10+10 ng/ml of mouse GM-CSF (Peprotec, EC LTD, London, UK)+1 ng/ml of TGF-β1 (RD Systems, Minneapolis, USA)], for 15 minutes at room temperature. Next, 2 ml of the cell suspension were added to each well and they were incubated at 37° C. and 5% CO2. During the first weeks, the medium was changed twice, by the elimination of 1 ml of supernatant and the addition of 1 ml of fresh medium (R10+GM-CSF+TGF-β1) for dendritic cells. After these two weeks, the medium was separated. 1 ml per well of dissociation medium in enzyme-free BPS (GIBCO BRL) was added to the plates, and the medium was incubated at 37° C., then it was removed and 2 ml of tepid medium (R10+GM-CSF+TGF-β1) was added. Next, the cells were lifted with slow pipetting and the lifted cells were centrifuged at 1000 rpm and they were resuspended in fresh medium (R10+GM-CSF+TGF-β1). The cells thus obtained can be reamplified by seeding on a plate, repeating the initial process. […]

p144: peptide inhibiting TGF-β1 whose amino acid sequence corresponds to SEQ ID NO: 1 (TSLDASIIWAMMQN; Synthetic Construct from human TGB-Beta1 type III receptor.Domain730-743)
negative effect: CD11c expression (fluorescence level) | CD80 expression (fluorescence level) | MHC I expression (fluorescence level)
